The source of these data is patent publication US20230003721A1, “MITOTHERAPEUTICS FOR THE TREATMENT OF BRAIN DISORDERS” (The University of Florida Research Foundation, Inc., priority 2019, published 2023).

Counter-ions that a name gives are not always drawn.

For experiment [1], the system named is primary forebrain neurons. The experiment in a line: cells. As to conditions: rescreen, 12.5 μM, 24 h, vs DMSO wells. The protocol: Primary forebrain cell culture and maintenance. Forebrains of P0 Mt or Mt/Ai14 pups without olfactory bulbs and meninges were collected and placed in ice cold Ca^2+ and Mg^2+ free HBSS supplemented with 2 μg/ml gentamicin, 25 mM D-glucose, 1 mM pyruvate and 20 mM HEPES. Brain tissue was digested with 0.6 mg/ml papain at 37° C. for 20 min. Forebrains were washed with plating media [Neurobasal (Gibco), 5% FBS, 4 mM GlutaMAX (Gibco), 2 μg/ml gentamicin]. The tissue was gently triturated, allowed to settle and the supernatant was filtered through a 40 μm mesh-sized cell strainer. Cells were centrifuged at 420×g for 4 min and resuspended in plating media. 15,000 cells per well were plated with 2×10^8 viral particles/ml onto black Greiner μClear (Cat #781946) or Ultra-Low Base Aurora with evaporation barrier (Cat #ABE201201B) 384-well plates (80 μl/well) pre-coated with poly-D-lysine for the primary screen and rescreen, respectively. Plating and media changes were performed using an automated Biomek FX^P liquid handling workstation. Four hr after plating, 75% of the plating media was replaced by feeding media [Neurobasal-A (Gibco), 4 mM GlutaMAX (Gibco), 2 μg/ml gentamicin, 2% B27 (Gibco)]. At DIV4, 50% of the media was exchanged with fresh feeding media supplemented with 16 μM 5-Fluoro-2′-deoxyuridine (FUdR) to prevent glial cell over-growth. At DIV8 and DIV12, additional 50% media changes were made without FUdR. Cells were maintained at 37° C. and 5% CO2; plates were topped with Breathe-Easy adhesive membranes (Greiner plates) to minimize evaporation.
Compounds and compound transfer.
Imaging. Images were captured using a GE Incell 6000 system (60× objective, 0.95 NA, 16-bit images) equipped with environmental control (37° C., 5% CO2). Mt-GFP (green channel) was imaged by confocal imaging (3 slices, Δz=0.7 μm, aperture=1.0 AU, λexc=488 nm, λem=515-535 nm). Cyto-tdTomato (red channel) and MitoTracker Orange (red channel) were imaged using confocal mode (3 slices, Δz=0.7 μm, aperture=1.0 AU, λexc=561 nm, λem=569-641 nm, MitoTracker Orange) or with widefield mode (Cyto-tdTomato). TMRM imaged for the co-localization experiments with Mt-GFP was imaged using the confocal mode (3 slices, […] aperture=1.0, λexc=488, λem=569-641 nm). For the live-dead assay, primary neurons were imaged with a 20× (widefield mode, NA 0.45) objective using λexc=561 nm and λem=569-641 nm for the propidium iodide stained dead cells (red channel), and λexc=488 nm and λem=515-535 nm for the fluorescein diacetate stained live cells (green channel). 10 fields were collected from each well, and 4 wells were imaged/condition in the live-dead assay. For all other experiments, 4 fields/well were imaged unless otherwise stated.
Automated data analysis pipeline. Most experiments utilized only Mt-GFP; some utilized both Mt-GFP and Cyto-tdTomato. The Z-projected images were preprocessed using a custom Fiji macro. For preprocessing of Mt-GFP images: background was subtracted (rolling ball, radius=3), images were median filtered (radius=1) and somatic mitochondria were removed. For removal of the somatic mitochondria, they were first segmented and then a somatic mitochondrial mask overlaid on the image.

The test system of experiment [2] is primary neurons. The experiment in a line: TMRM fluorescence assay of inner mitochondrial membrane potential (ΔΨm). As to conditions: for TMRM Primary: primary screen, 12.5 μM; for TMRM Primary / TMRM Rescreen: 24 h.
Experiment [3] has as its system primary neurons. The experiment in a line: CellTiter-Glo luminescence-based ATP assay. It counts as cell-based, mouse. As to conditions: for ATP: ATP orthogonal screen, 24 h. In a few lines: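 Primary neurons treated from DIV13 for 24 h with compound or DMSO. After part of the medium was removed, CellTiter-Glo reagent was added; plates were shaken 10 min at 200 rpm, kept 2 min in the dark at room temperature, and luminescence read as total ATP.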

With `CN1CCN(C(c2ccccc2)c2ccccc2)CC1` [CYCLIZINE], in experiment [1], the “Dendritic Mt CA” value was found to be 2.82 robust Z-scores and the “Neurite Area” value is recorded as −0.03 robust Z-scores. Further, in experiment [2], the “TMRM Primary” value was 3.41 Z-scores and the “TMRM Rescreen” value is 5.91 Z-scores. Moreover, the ATP in experiment [3] came to 5.18 Z-scores.
On the same counts, the results for `COC(=O)C[C@H]1C(C)(C)[C@@H](OC(C)=O)[C@@H]2CC3C4CC(=O)O[C@@H](c5ccoc5)[C@]4(C)CCC3[C@@]1(C)C2=O` (some centres unmarked) [DIHYDROFISSINOLIDE] are 2.77 robust Z-scores, 4.24 robust Z-scores, 3.94 Z-scores, 4.61 Z-scores and 5.15 Z-scores.
On the same counts, the results for `CCCCCCOc1ccccc1C(N)=O` [EXALAMIDE] are 2.43 robust Z-scores, 3.42 robust Z-scores, 3.39 Z-scores, 4.57 Z-scores and 6.10 Z-scores.
For `OC(CCN1CCCCC1)(c1ccccc1)c1ccccc1` [PRIDINOL METHANESULFONATE], in experiment [1], the “Dendritic Mt CA” value was 2.86 robust Z-scores and the “Neurite Area” value came to 1.80 robust Z-scores. The Emax in experiment [2] (Mus musculus, Primary neuron, read-out: TMRM (Effect-size)) amounted to 20.6%. Moreover, in experiment [2] (Mus musculus, Primary neuron, read-out: TMRM-EC50), the EC50 came out at 3.9 µM. Moreover, in experiment [2], the “TMRM Primary” value is reported as 5.88 Z-scores and the “TMRM Rescreen” value came to 6.92 Z-scores. Moreover, the ATP in experiment [3] was 5.46 Z-scores. Besides, it took 1.65 µM to reach a half-maximal effect in experiment [3] (Mus musculus, Primary neuron, dose response, 15 concentrations from 6 nM to 100 uM) (EC50). For the same molecule, the Emax in experiment [3] (Mus musculus, Primary neuron, maximal percent increase relative to in-plate DMSO controls, dose response, read-out: ATP (Effect-size)) worked out at 15.7%.
Regarding `Clc1ccc(Cn2c(CN3CCCC3)nc3ccccc32)cc1` [CLEMIZOLE HYDROCHLORIDE], in experiment [1], the “Dendritic Mt CA” value is given as 2.54 robust Z-scores and the “Neurite Area” value is −0.66 robust Z-scores. Besides, in experiment [2], the “TMRM Primary” value came to 3.54 Z-scores and the “TMRM Rescreen” value was found to be 5.90 Z-scores. The molecule further registered an ATP in experiment [3] of 4.16 Z-scores.
On the same counts, the results for `CCN(CC)CCOCCOC(=O)C(CC)(CC)c1ccccc1.O=C(O)CC(O)(CC(=O)O)C(=O)O` [OXELAIDIN CITRATE] are 2.59 robust Z-scores, −1.31 robust Z-scores, 4.27 Z-scores, 6.44 Z-scores and 2.73 Z-scores.
Take `Cc1ccc([C@@H]2O[C@H](CO)[C@@H](O)[C@H](O)[C@H]2O)cc1Cc1ccc(-c2ccc(F)cc2)s1` [CANAGLIFLOZIN]: in experiment [1], the “Dendritic Mt CA” value was 2.93 robust Z-scores and the “Neurite Area” value came out at 0.74 robust Z-scores. Besides, in experiment [2], the “TMRM Primary” value was found to be 4.55 Z-scores and the “TMRM Rescreen” value is recorded as 6.36 Z-scores. For the same molecule, the ATP in experiment [3] worked out at 3.13 Z-scores.
Turning to `CN1CCC(=C2c3ccccc3Sc3ccccc32)CC1` [PIMETHIXENE MALEATE], in experiment [1], the “Dendritic Mt CA” value stood at 2.57 robust Z-scores and the “Neurite Area” value is recorded as −2.10 robust Z-scores. For the same molecule, in experiment [2], the “TMRM Primary” value is 3.95 Z-scores and the “TMRM Rescreen” value stood at 5.12 Z-scores. In experiment [3], the ATP worked out at 4.56 Z-scores.

As usually defined, the EC50 is the midpoint of the concentration-response curve.
